Where two headings read alike, the source gives them in different places.
How the values were obtained:
Alternaria alternata [1] = experiment: In vitro poisoned food technique against fungus (Ex. 20); assay type: cell-based; settings: poisoned food technique, PDA medium, dose 1 ml/gm/lit., after seven days; for inhibition of growth at 1 mL or g/L: vs untreated control, read-out: % Inhibition of growth
Alternaria alternata [2] = experiment: Alternaria leaf spot/blight on inoculated tomato plants (Ex. 28); assay type: in vivo; settings: tomato plants, Alternaria alternata; after 7 days; dose 1 ml/gm/lit
tomato seedlings = experiment: Response of tomato plants, greenhouse growth (Ex. 30); assay type: in vivo; settings: tomato seedlings, dose 1 ml/gm/lit; for Plant Height 5th Day / Stem Girth 5th Day / CCI 5th Day: 5th day after application; for Plant Height 10th Day / Stem Girth 10th Day / CCI 10th Day: 10th day after application; for Plant Height % Increase over pre on 10th Day / Stem Girth % Increase over pre on 10th Day / CCI % Increase over pre on 10th Day / Root Length (cm) 10th Day / Root Length % Increase over control: 10th day; for Root Length % Increase over control: vs water control
chili seedlings = experiment: Response of chili plants, greenhouse growth (Ex. 31); assay type: in vivo; settings: chili seedlings, dose 1 ml/gm/lit; for CCI 5th Day / Plant Height (cm) 5th Day: 5th day after application; for CCI 10th Day / Plant Height (cm) 10th Day: 10th day after application; for CCI % Increase over pre on 10th Day / Plant Height % Increase over pre on 10th Day / Root Lenght (cm) 10th Day / Stem Girth % Increase over pre on 10th Day / Root Lenght % Increase over control: 10th day; for Root Lenght % Increase over control: vs water control
Aphid [3] = settings: Dose 1 ml/gm/lit.; for Total No. of dead insect at 48 Hrs.: 10 insects/treatment, 4 replications, cotton leaves
Mite [4] = settings: Dose 1 ml/gm/lit.; for Total No. of dead insect at 48 Hrs.: 10 insects/treatment, 4 replications, okra leaves
Mealy Bug [5] = settings: Mealy Bug on cotton leaves, dose 1 ml/gm/lit., 48 Hrs.; for Total No. of dead insect at 48 Hrs.: 10 insects/treatment, 4 replications; for % Corrected Mortality at 48 Hrs.: corrected for water control
Helicoverpa armigera [6] = settings: Helicoverpa armigera on okra fruits, dose 1 ml/gm/lit., 72 Hrs.; for Total No. of dead insect at 72 Hrs.: 10 insects/treatment, 4 replications; for % Corrected Mortality at 72 Hrs.: corrected for water control
Spodoptera litura [7] = settings: Spodoptera litura on castor leaves; dose 1 ml/gm/lit.; 10 insects/treatment; 72 hrs after application
Thrips [8] = settings: Thrips on cotton leaves; dose 1 ml/gm/lit.; 10 insects/treatment; 48 hrs after application
Aphid [9] = settings: Aphids on cotton plants, green house; dose 1 ml/gm/lit.; 10 insects/plant, 10 plants/treatment; 48 hrs
Mite [10] = settings: mite on okra plants, green house, dose 1 ml/gm/lit. spray; for % Mortality at 48 Hrs. / Total No. of dead insect at 48 Hrs.: 48 hrs after application; for % Corrected Mortality at 48 Hrs.: corrected for water control
Mealy Bug [11] = settings: mealy bug on cotton plants, green house, dose 1 ml/gm/lit. spray; for % Mortality at 48 Hrs. / Total No. of dead insect at 48 Hrs.: 48 hrs after application; for % Corrected Mortality at 48 Hrs.: corrected for water control
Helicoverpa armigera [12] = settings: Helicoverpa armigera 3rd instar on chickpea plants, dose 1 ml/gm/lit. spray; for % Mortality at 72 Hrs.: 72 hrs after application; for % Corrected Mortality at 72 Hrs.: corrected for water control
Spodoptera litura [13] = settings: Spodoptera litura 3rd instar on cabbage plants, dose 1 ml/gm/lit. spray; for % Mortality at 72 Hrs.: 72 hrs after application; for % Corrected Mortality at 72 Hrs.: corrected for water control
Thrips [14] = settings: thrips on cotton plants, greenhouse, dose 1 ml/gm/lit. spray; for % Mortality at 48 Hrs. / Total No. of dead insect at 48 Hrs.: 48 hrs after application; for % Corrected Mortality at 48 Hrs.: corrected for water control
[15] = cited from earlier work
Spodoptera litura [16] = experiment: whole plant or invertebrate; settings: 72 h
Thrips [17] = experiment: whole plant or invertebrate; settings: in Gossypium hirsutum, 48 h
Aphid [18] = experiment: whole plant or invertebrate; settings: 48 h
[19] = Table 13, descriptive, no test described
[20] = read-out: % Corrected Mortality at 72 Hrs.
[21] = read-out: % Mortality at 72 Hrs.
[22] = read-out: % Corrected Mortality at 48 Hrs.
[23] = read-out: % Mortality at 48 Hrs.

CC12CCC(CC1=O)C2(C)C (stereo not shown) [Camphor]
Mean colony Diameter (mm) (Alternaria alternata [1]): 60.00 mm | inhibition of growth at 1 mL or g/L (Alternaria alternata [1]): 31.8% | % Disease reduction over Control (Alternaria alternata [2]): 46.28% | Plant Height 5th Day (tomato seedlings): 6.34 cm | Stem Girth 5th Day (tomato seedlings): 1.90 mm | Plant Height 10th Day (tomato seedlings): 6.96 cm | Stem Girth 10th Day (tomato seedlings): 2.06 mm | Plant Height % Increase over pre on 10th Day (tomato seedlings): 27.94% | Stem Girth % Increase over pre on 10th Day (tomato seedlings): 53.50% | CCI 5th Day (tomato seedlings): 13.64 | CCI % Increase over pre on 10th Day (tomato seedlings): 26.67% | Root Length (cm) 10th Day (tomato seedlings): 3.58 cm | CCI 10th Day (tomato seedlings): 14.82 | Root Length % Increase over control (tomato seedlings): 7.76% | CCI 5th Day (chili seedlings): 11.80 | Plant Height (cm) 5th Day (chili seedlings): 5.70 cm | CCI % Increase over pre on 10th Day (chili seedlings): 25.81% | Plant Height % Increase over pre on 10th Day (chili seedlings): 56.20% | Root Lenght (cm) 10th Day (chili seedlings): 3.47 cm | Stem Girth % Increase over pre on 10th Day (chili seedlings): 44.32% | CCI 10th Day (chili seedlings): 13.21 | Plant Height (cm) 10th Day (chili seedlings): 6.30 cm | Root Lenght % Increase over control (chili seedlings): 26.68% | Total No. of dead insect at 48 Hrs. (Aphid [3]): 5.75 | % Corrected Mortality at 48 Hrs. (Aphid [3]): 51.43% | % Mortality at 48 Hrs. (Aphid [3]): 57.50% | Total No. of dead insect at 48 Hrs. (Mite [4]): 6.75 | % Corrected Mortality at 48 Hrs. (Mite [4]; 48 hrs): 64.86% | Total No. of dead insect at 48 Hrs. (Mealy Bug [5]): 5.25 | % Mortality at 48 Hrs. (Mealy Bug [5]): 52.50% | % Corrected Mortality at 48 Hrs. (Mealy Bug [5]): 50.00% | Total No. of dead insect at 72 Hrs. (Helicoverpa armigera [6]): 6.00 | % Mortality at 72 Hrs. (Helicoverpa armigera [6]): 60.00% | % Corrected Mortality at 72 Hrs. (Helicoverpa armigera [6]): 60.00% | Total No. of dead insect at 72 Hrs. (Spodoptera litura [7]): 4.25 | Total No. of dead insect at 48 Hrs. (Thrips [8]): 4.50 | Total No. of dead insect at 48 Hrs. (Aphid [9]): 60.00 | % Mortality at 48 Hrs. (Mite [10]): 65.00% | Total No. of dead insect at 48 Hrs. (Mite [10]): 65.00 | % Corrected Mortality at 48 Hrs. (Mite [10]): 63.16% | % Mortality at 48 Hrs. (Mealy Bug [11]): 67.50% | Total No. of dead insect at 48 Hrs. (Mealy Bug [11]): 67.50 | % Corrected Mortality at 48 Hrs. (Mealy Bug [11]): 63.89% | % Mortality at 72 Hrs. (Helicoverpa armigera [12]): 55.00% | % Corrected Mortality at 72 Hrs. (Helicoverpa armigera [12]): 55.00% | % Mortality at 72 Hrs. (Spodoptera litura [13]): 45.00% | % Corrected Mortality at 72 Hrs. (Spodoptera litura [13]): 42.11% | % Mortality at 48 Hrs. (Thrips [14]): 42.50% | Total No. of dead insect at 48 Hrs. (Thrips [14]): 42.50 | % Corrected Mortality at 48 Hrs. (Thrips [14]): 36.11% | Acaricidal Activity - Mode of action [15, 19]: Deteriorating respiratory | Antifungal Activity - Mode of action [15, 19]: Repel fungal infections | Antioxidant Activity - Mode of action [15, 19]: Free radical scavenging | Bactericidal Activity - Mode of action [15, 19]: Inhibit microbial growth, | Insecticidal Activities - Mode of action [15, 19]: Strong contact toxicity | Nematicidal Activity - Mode of action [15, 19]: Strong activity against | Virucidal Activity - Mode of action [15, 19]: Control the spread of viral | Phytotonic Effect ([15]; Table 13, effect on plants, descriptive): Strong | mortality at 1 mL or g/L (Spodoptera litura [16]; [20]): 39.5% | mortality at 1 mL or g/L (Spodoptera litura [16]; [21]): 42.5% | mortality at 1 mL or g/L (Thrips [17]; [22]): 37.1% | mortality at 1 mL or g/L (Thrips [17]; [23]): 45% | mortality at 1 mL or g/L (Aphid [18]; [22]): 52.9% | mortality at 1 mL or g/L (Aphid [18]; [23]): 60%

Cc1ccc(C(C)C)cc1O [Carvacrol]
Mean colony Diameter (mm) (Alternaria alternata [1]): 52.50 mm | inhibition of growth at 1 mL or g/L (Alternaria alternata [1]): 40.3% | % Disease reduction over Control (Alternaria alternata [2]): 47.93% | Plant Height 5th Day (tomato seedlings): 6.38 cm | Stem Girth 5th Day (tomato seedlings): 2.05 mm | Plant Height 10th Day (tomato seedlings): 7.23 cm | Stem Girth 10th Day (tomato seedlings): 2.35 mm | Plant Height % Increase over pre on 10th Day (tomato seedlings): 32.66% | Stem Girth % Increase over pre on 10th Day (tomato seedlings): 63.42% | CCI 5th Day (tomato seedlings): 13.62 | CCI % Increase over pre on 10th Day (tomato seedlings): 33.70% | Root Length (cm) 10th Day (tomato seedlings): 4.25 cm | CCI 10th Day (tomato seedlings): 15.87 | Root Length % Increase over control (tomato seedlings): 27.69% | CCI 5th Day (chili seedlings): 14.95 | Plant Height (cm) 5th Day (chili seedlings): 6.33 cm | CCI % Increase over pre on 10th Day (chili seedlings): 64.84% | Plant Height % Increase over pre on 10th Day (chili seedlings): 65.77% | Root Lenght (cm) 10th Day (chili seedlings): 3.97 cm | Stem Girth % Increase over pre on 10th Day (chili seedlings): 49.25% | CCI 10th Day (chili seedlings): 15 | Plant Height (cm) 10th Day (chili seedlings): 7.57 cm | Root Lenght % Increase over control (chili seedlings): 44.94% | Total No. of dead insect at 48 Hrs. (Aphid [3]): 7.00 | % Corrected Mortality at 48 Hrs. (Aphid [3]): 65.71% | % Mortality at 48 Hrs. (Aphid [3]): 70.00% | Total No. of dead insect at 48 Hrs. (Mite [4]): 4.25 | % Corrected Mortality at 48 Hrs. (Mite [4]; 48 hrs): 37.84% | % Mortality at 48 Hrs. (Mite [4]; 48 hrs): 42.50% | Total No. of dead insect at 48 Hrs. (Mealy Bug [5]): 6.75 | % Mortality at 48 Hrs. (Mealy Bug [5]): 67.50% | % Corrected Mortality at 48 Hrs. (Mealy Bug [5]): 65.79% | Total No. of dead insect at 72 Hrs. (Helicoverpa armigera [6]): 5.50 | % Mortality at 72 Hrs. (Helicoverpa armigera [6]): 55.00% | % Corrected Mortality at 72 Hrs. (Helicoverpa armigera [6]): 55.00% | Total No. of dead insect at 72 Hrs. (Spodoptera litura [7]): 4.50 | Total No. of dead insect at 48 Hrs. (Thrips [8]): 3.50 | Total No. of dead insect at 48 Hrs. (Aphid [9]): 72.50 | % Mortality at 48 Hrs. (Mite [10]): 47.50% | Total No. of dead insect at 48 Hrs. (Mite [10]): 47.50 | % Corrected Mortality at 48 Hrs. (Mite [10]): 44.74% | % Mortality at 48 Hrs. (Mealy Bug [11]): 65.00% | Total No. of dead insect at 48 Hrs. (Mealy Bug [11]): 65.00 | % Corrected Mortality at 48 Hrs. (Mealy Bug [11]): 61.11% | % Mortality at 72 Hrs. (Helicoverpa armigera [12]): 52.50% | % Corrected Mortality at 72 Hrs. (Helicoverpa armigera [12]): 52.50% | % Mortality at 72 Hrs. (Spodoptera litura [13]): 47.50% | % Corrected Mortality at 72 Hrs. (Spodoptera litura [13]): 44.74% | % Mortality at 48 Hrs. (Thrips [14]): 32.50% | Total No. of dead insect at 48 Hrs. (Thrips [14]): 32.50 | % Corrected Mortality at 48 Hrs. (Thrips [14]): 25.00% | Acaricidal Activity - Mode of action [15, 19]: Has acaricidal activities | Antifungal Activity - Mode of action [15, 19]: Antifungal activities | Antioxidant Activity - Mode of action [15, 19]: Antioxidant activities | Bactericidal Activity - Mode of action [15, 19]: Exhibits antibacterial | Insecticidal Activities - Mode of action [15, 19]: Insecticidal toxicities | Nematicidal Activity - Mode of action [15, 19]: Effective against plant | mortality at 1 mL or g/L (Spodoptera litura [16]; [20]): 42.1% | mortality at 1 mL or g/L (Spodoptera litura [16]; [21]): 45% | mortality at 1 mL or g/L (Thrips [17]; [22]): 25.7% | mortality at 1 mL or g/L (Thrips [17]; [23]): 35% | mortality at 1 mL or g/L (Aphid [18]; [22]): 67.7% | mortality at 1 mL or g/L (Aphid [18]; [23]): 72.5%

From patent publication US20250351832A1, “PHYTOCHEMICALS AS BIOPESTICIDES AND BIOSTIMULANTS” (KAY BEE BIO ORGANICS PVT. LTD., priority 2024, published 2025)
